Active and inactive are the calls of the source.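 Rule for the calls: active = thrombin counterscreen IC50 at or below 100 µM; inactive = the rest.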
These compounds were tested against Prothrombin (Bos taurus) (UniProt P00735) (assay: thrombin inhibitor potency on Ub4 substrate – biochemical, fluorescence polarization, SAR validation, counter-screen for Rpn11 inhibitor project, dose response (AID 686918)). Conditions: bovine thrombin cleavage of Ub4-pepOG.
Sequence of Prothrombin (Bos taurus) (P00735 whole entry, looked up): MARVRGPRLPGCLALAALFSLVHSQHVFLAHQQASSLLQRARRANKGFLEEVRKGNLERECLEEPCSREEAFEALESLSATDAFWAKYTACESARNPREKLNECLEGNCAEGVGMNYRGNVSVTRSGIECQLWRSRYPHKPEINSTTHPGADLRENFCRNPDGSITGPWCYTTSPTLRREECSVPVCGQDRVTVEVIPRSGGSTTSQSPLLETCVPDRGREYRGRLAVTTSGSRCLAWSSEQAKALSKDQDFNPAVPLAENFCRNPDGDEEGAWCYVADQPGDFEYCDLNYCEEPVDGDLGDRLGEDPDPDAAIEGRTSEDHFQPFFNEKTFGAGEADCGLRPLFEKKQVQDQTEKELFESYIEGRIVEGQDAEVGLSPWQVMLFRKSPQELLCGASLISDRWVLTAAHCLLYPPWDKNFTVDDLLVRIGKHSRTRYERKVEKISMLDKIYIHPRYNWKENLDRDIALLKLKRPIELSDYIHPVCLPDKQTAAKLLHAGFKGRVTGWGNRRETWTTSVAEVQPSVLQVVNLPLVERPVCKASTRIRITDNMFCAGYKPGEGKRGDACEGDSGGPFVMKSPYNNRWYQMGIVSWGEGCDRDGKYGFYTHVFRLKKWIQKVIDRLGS

For `COC(=O)c1cnc2c(SSc3cccc4cc(C(=O)OC)cnc34)cccc2c1`, which IC50 is on record?
The IC50 was > 99 µM (inactive).

Which IC50 does the source give for `O=C(O)[C@@H]1CCCN1C(=O)c1cnc2c(SSc3cccc4cc(C(=O)N5CCC[C@H]5C(=O)O)cnc34)cccc2c1` here?
Its IC50 is > 99 µM (inactive).

`O=C(Sc1cccc2cccnc12)c1cccc2ccccc12` was tested. Which IC50 did it give?
Its IC50 is > 99 µM (inactive).

With `O=C(Sc1cccc2cccnc12)c1c(Cl)cccc1Cl` as the compound, how does the IC50 read?
Its IC50 is > 99 µM (inactive).

`O=C(Sc1cccc2cccnc12)c1ccc(F)c(F)c1` was tested. Which IC50 did it give?
Its IC50 is > 99 µM (inactive).

`CCCc1ccc(C(=O)Sc2cccc3cccnc23)cc1` was tested. Which IC50 did it give?
Its IC50 is > 99 µM (inactive).

Which IC50 does the source give for `COC(=O)[C@H](C)N(C)C(=O)c1cnc2c(SSc3cccc4cc(C(=O)N(C)[C@@H](C)C(=O)OC)cnc34)cccc2c1` here?
The IC50 was > 99 µM (inactive).

How did the IC50 turn out when `COc1ccccc1C(=O)Sc1cccc2cccnc12` was run?
Its IC50 is > 99 µM (inactive).

Which IC50 does the source give for `CCOc1ccccc1C(=O)Sc1cccc2cccnc12` here?
Its IC50 is > 99 µM (inactive).

Which IC50 does the source give for `CC(C)Cc1ccc(C(=O)Sc2cccc3cccnc23)cc1` here?
The IC50 was > 99 µM (inactive).

`COc1ccc(C(=O)Sc2cccc3cccnc23)cc1F` was tested. Which IC50 did it give?
Its IC50 is > 99 µM (inactive).

For `O=C(Sc1cccc2cccnc12)c1ccccc1Cl`, which IC50 is on record?
Its IC50 is > 99 µM (inactive).

For `Cc1ccc(C(=O)Sc2cccc3cccnc23)cc1`, which IC50 is on record?
Its IC50 is > 99 µM (inactive).

With `COc1ccc(C(=O)Sc2cccc3cccnc23)cc1` as the compound, how does the IC50 read?
The IC50 was > 99 µM (inactive).

`COC(=O)[C@@H](NC(=O)c1cnc2c(SSc3cccc4cc(C(=O)N[C@H](C(=O)OC)C(C)C)cnc34)cccc2c1)C(C)C` was tested. Which IC50 did it give?
Its IC50 is > 99 µM (inactive).

How did the IC50 turn out when `COC(=O)[C@H](C)NC(=O)c1ccnc2c(SSc3cccc4c(C(=O)N[C@@H](C)C(=O)OC)ccnc34)cccc12` was run?
Its IC50 is > 99 µM (inactive).

Which IC50 does the source give for `O=C(Sc1cccc2cccnc12)c1ccc(F)cc1` here?
The IC50 was > 99 µM (inactive).

Which IC50 does the source give for `O=C(Sc1cccc2cccnc12)c1ccccc1` here?
The IC50 was > 99 µM (inactive).

With `C[C@@H](C(=O)O)N(C)C(=O)c1cnc2c(SSc3cccc4cc(C(=O)N(C)[C@@H](C)C(=O)O)cnc34)cccc2c1` as the compound, how does the IC50 read?
Its IC50 is > 99 µM (inactive).

How did the IC50 turn out when `O=C(Sc1cccc2cccnc12)c1ccccc1Br` was run?
Its IC50 is > 99 µM (inactive).

For `O=C(Sc1cccc2cccnc12)c1ccc(C(F)(F)F)cc1`, which IC50 is on record?
The IC50 was > 99 µM (inactive).

With `COc1cccc(C(=O)Sc2cccc3cccnc23)c1` as the compound, how does the IC50 read?
Its IC50 is > 99 µM (inactive).

With `CC[C@@H](C)[C@H](NC(=O)c1cnc2c(SSc3cccc4cc(C(=O)N[C@H](C(=O)OC)[C@@H](C)CC)cnc34)cccc2c1)C(=O)OC` as the compound, how does the IC50 read?
Its IC50 is > 99 µM (inactive).

For `O=C(Sc1cccc2cccnc12)c1cccc(C(F)(F)F)c1`, which IC50 is on record?
The IC50 was > 99 µM (inactive).

How did the IC50 turn out when `O=C(Sc1cccc2cccnc12)c1ccccc1OC(F)(F)F` was run?
The IC50 was > 99 µM (inactive).

`O=C(O)c1cnc2c(SSc3cccc4cc(C(=O)O)cnc34)cccc2c1` was tested. Which IC50 did it give?
Its IC50 is > 99 µM (inactive).

`O=C(Sc1cccc2cccnc12)c1ccc([N+](=O)[O-])cc1` was tested. Which IC50 did it give?
Its IC50 is > 99 µM (inactive).

Which IC50 does the source give for `COC(=O)C[C@H](NC(=O)c1cnc2c(SSc3cccc4cc(C(=O)N[C@@H](CC(=O)OC)C(=O)OC)cnc34)cccc2c1)C(=O)OC` here?
Its IC50 is > 99 µM (inactive).

`Cc1cccc(C(=O)Sc2cccc3cccnc23)c1` was tested. Which IC50 did it give?
Its IC50 is > 99 µM (inactive).

How did the IC50 turn out when `CC(C)C[C@H](NC(=O)c1cnc2c(SSc3cccc4cc(C(=O)N[C@@H](CC(C)C)C(=O)O)cnc34)cccc2c1)C(=O)O` was run?
Its IC50 is > 99 µM (inactive).

`COc1ccc(C(=O)Sc2cccc3cccnc23)cc1OC` was tested. Which IC50 did it give?
Its IC50 is > 99 µM (inactive).

Which IC50 does the source give for `O=C(Sc1cccc2cccnc12)c1ccccc1[N+](=O)[O-]` here?
The IC50 was > 99 µM (inactive).

`COC(=O)[C@@H]1CCCN1C(=O)c1cnc2c(SSc3cccc4cc(C(=O)N5CCC[C@H]5C(=O)OC)cnc34)cccc2c1` was tested. Which IC50 did it give?
The IC50 was > 99 µM (inactive).

With `CC(C)[C@H](NC(=O)c1cnc2c(SSc3cccc4cc(C(=O)N[C@H](C(=O)O)C(C)C)cnc34)cccc2c1)C(=O)O` as the compound, how does the IC50 read?
Its IC50 is > 99 µM (inactive).

How did the IC50 turn out when `O=C(Sc1cccc2cccnc12)c1cccc(Cl)c1` was run?
The IC50 was > 99 µM (inactive).

With `Cc1ccccc1C(=O)Sc1cccc2cccnc12` as the compound, how does the IC50 read?
Its IC50 is > 99 µM (inactive).

Which IC50 does the source give for `CC(C)(C)OC(=O)CCNC(=O)c1cnc2c(SSc3cccc4cc(C(=O)NCCC(=O)OC(C)(C)C)cnc34)cccc2c1` here?
Its IC50 is > 99 µM (inactive).

`O=C(Sc1cccc2cccnc12)c1ccc2c(c1)OCO2` was tested. Which IC50 did it give?
The IC50 was > 99 µM (inactive).

With `COC(=O)[C@H](CC(C)C)NC(=O)c1cnc2c(SSc3cccc4cc(C(=O)N[C@@H](CC(C)C)C(=O)OC)cnc34)cccc2c1` as the compound, how does the IC50 read?
The IC50 was > 99 µM (inactive).

Which IC50 does the source give for `N#Cc1cccc(C(=O)Sc2cccc3cccnc23)c1` here?
The IC50 was > 99 µM (inactive).

For `O=C(Sc1cccc2cccnc12)c1ccccc1I`, which IC50 is on record?
Its IC50 is > 99 µM (inactive).

With `COC(=O)[C@H](C)NC(=O)c1cnc2c(SSc3cccc4cc(C(=O)N[C@@H](C)C(=O)OC)cnc34)cccc2c1` as the compound, how does the IC50 read?
Its IC50 is > 99 µM (inactive).

For `N#Cc1ccc(C(=O)Sc2cccc3cccnc23)cc1`, which IC50 is on record?
The IC50 was > 99 µM (inactive).

With `CC[C@@H](C)[C@H](NC(=O)c1cnc2c(SSc3cccc4cc(C(=O)N[C@H](C(=O)O)[C@H](C)CC)cnc34)cccc2c1)C(=O)O` as the compound, how does the IC50 read?
The IC50 was > 99 µM (inactive).

Which IC50 does the source give for `O=C(Sc1cccc2cccnc12)C1CCCCC1` here?
Its IC50 is > 99 µM (inactive).

How did the IC50 turn out when `COC(=O)[C@H](CO)NC(=O)c1cnc2c(SSc3cccc4cc(C(=O)N[C@@H](CO)C(=O)OC)cnc34)cccc2c1` was run?
Its IC50 is > 99 µM (inactive).

With `O=C(Sc1cccc2cccnc12)c1ccccc1F` as the compound, how does the IC50 read?
The IC50 was > 99 µM (inactive).

For `O=C(Sc1cccc2cccnc12)c1ccc(F)cc1F`, which IC50 is on record?
The IC50 was > 99 µM (inactive).
